Results taken from US5885834A, “Antisense oligodeoxynucleotide against phosphodiesterase” (priority 1997, dated 1999).
“Also recorded” adds a separate entry of the source.

Legend:
Assay type in all cases: cell-based, human
[1] = test system: PDE1B1 mRNA in RPMI 8392 cells; experiment: Quantitative RT-PCR of PDE1B1 mRNA after ODN treatment; conditions: 10 or 30 μM ODN
From the text: This is usually determined by looking at the reduction or disappearance of the protein product, either by selective measurement of an enzymatic activity of the protein, where applicable, or by immunoquantitation with specific antibodies by Western blot or ELISA techniques. Also, when PO or PS ODNs are used, which are capable of activating RNase H activity, it is expected that the mRNA of the targeted gene would be down regulated, most of the time, along with the protein product, and this can be readily tested by Northern blot analysis or PCR techniques. Using quantitative RT-PCR with primers specific for PDE1B1, we examined the RPMI 8392 cells for the presence of PDE1B1 mRNA. […] NS ODN, at these concentrations, had no effect on the expression of PDE1B1 mRNA. […] In this connection, the expression of β-actin is unaffected by cAMP and, therefore, β-actin mRNA levels were used as a control. Another gene that is often also used for control measurements for this purpose is that of glyceraldehyde-3-phosphate dehydrogenase (G3PDH).
HPBL were isolated from a normal human donor and placed in culture with (+PHA) or without (-PHA) phytohemagglutinin for 3 days. Quantitative RT-PCR was performed with 2 μg of HPBL RNA, using reagents and protocol from GIBCO/BRL. Degenerate 23 nt primers were synthesized based on reported sequences for PDE1B1. The sequence of the forward primer (Primer 1) corresponds to nt -34 to -12 and the sequence of the reverse primer (Primer 2) is complementary to nt 277 to 299 of the PDE1B1 cDNA. […]
(§1) Using quantitative RT-PCR, the effect of AS ODN and NS ODN on the level of mRNA for PDE1B1 in RPMI 8392 cells was examined. Quantitative RT-PCR was used to determine the relative amounts of β-actin and PDE1B1 mRNAs present in RPMI 8392 cells after 1 and 2 days in culture with 10 μM and 30 μM AS ODN (AS) and NS ODN (NS). […]

[2] = test system: β-actin mRNA in RPMI 8392 cells; experiment: Quantitative RT-PCR of β-actin mRNA (control gene) after ODN treatment; conditions: 10 or 30 μM ODN, 1 and 2 days
From the text: This is usually determined by looking at the reduction or disappearance of the protein product, either by selective measurement of an enzymatic activity of the protein, where applicable, or by immunoquantitation with specific antibodies by Western blot or ELISA techniques. Also, when PO or PS ODNs are used, which are capable of activating RNase H activity, it is expected that the mRNA of the targeted gene would be down regulated, most of the time, along with the protein product, and this can be readily tested by Northern blot analysis or PCR techniques. Using quantitative RT-PCR with primers specific for PDE1B1, we examined the RPMI 8392 cells for the presence of PDE1B1 mRNA. […] NS ODN, at these concentrations, had no effect on the expression of PDE1B1 mRNA. […]
HPBL were isolated from a normal human donor and placed in culture with (+PHA) or without (-PHA) phytohemagglutinin for 3 days. Quantitative RT-PCR was performed with 2 μg of HPBL RNA, using reagents and protocol from GIBCO/BRL. […]
as §1

[3] = test system: PDE1 activity in RPMI 8392 cells; experiment: CaM-stimulated PDE (PDE1) activity in cells after ODN treatment; conditions: for PDE1 (CaM-stimulated PDE) activity: 3 days
Description: Cells were grown to a density of about 10^6 /ml, collected by centrifugation (1200×g, 10 min), resuspended in I ml of homogenization buffer containing 40 mM Tris/HCl (pH 7.5), 1 mM EDTA, 1 mM DTT, 35 μg/ml phenylmethylsulfonyl fluoride, 15 mM benzamidine, 1 μg/ml leupeptin, 1 μg/ml antipain, 1 μg/ml pepstatin, and 1 μg/ml aprotinin, homogenized with 20 strokes of a Dounce glass-on-glasshomogenizer and assayed for PDE activity, using 1 μM cAMP as substrate, as described previously. Data points represent the means of 2 to 10 separate determinations. […] Control activity was 1.66±0.14 pmol/min/10^6 cells (mean±S.E.M.; n=8) in the absence and 4.80±0.42 pmol/min/10^6 cells (mean±S.E.M.; n=10) in the presence of Ca^2+ and calmodulin.
RPMI 8392 cells were grown and treated with AS and NS ODN as described in the legend to FIG. 2. Cells were then collected at daily intervals and assayed for PDE activity as described in FIG. 10. Results represent the mean±the range of duplicate determinations. Control activities (pmol/min/10^6 cells) were 1.17, 1.34, and 1.50 in the absence, and 3.83, 4.34, and 3.79 in the presence of Ca^2+ and calmodulin at days 1, 2, and 3, respectively.

Row | Substance | Level of PDE1B1 mRNA expression ([1]; 1 day) | Level of PDE1B1 mRNA expression ([1]; 2 days) | Levels of β-actin mRNA [2] | PDE1 activity ([3]; 30 μM ODN, 2 days) | PDE1 (CaM-stimulated PDE) activity ([3]; 10 or 30 μM ODN) | Level of PDE1B1 mRNA expression ([1]; 1 and 2 days) | PDE1 activity ([3]; 10 or 30 μM ODN, time not specified)
1 | 5'-GGACAGCTCCATGCTCAG-3' (phosphorothioate, further chemistry not given here) [AS ODN, 18 nt phosphorothioate antisense oligodeoxynucleotide targeted against the translation initiation region of PDE1B1] | diminished | absent; also recorded: almost undetectable | unaltered; also recorded: unchanged | noticeably diminished | undetectable; also recorded: disappear completely |  | 
2 | 5'-TACGTGAGGCACCTACGC-3' (phosphorothioate, further chemistry not given here) [NS ODN, control phosphorothioate nonsense ODN, same base composition as the AS ODN in random, scrambled order] |  |  | no effect; also recorded: unchanged |  | relatively unchanged | no effect | little or no effect
